Target: T1, Purified Human Erythrocyte Adenylate Kinase (Homo sapiens, UniProt P00568)
T1 construct: from tissue; host or cells: human erythrocytes
T1 sequence (P00568 1-194): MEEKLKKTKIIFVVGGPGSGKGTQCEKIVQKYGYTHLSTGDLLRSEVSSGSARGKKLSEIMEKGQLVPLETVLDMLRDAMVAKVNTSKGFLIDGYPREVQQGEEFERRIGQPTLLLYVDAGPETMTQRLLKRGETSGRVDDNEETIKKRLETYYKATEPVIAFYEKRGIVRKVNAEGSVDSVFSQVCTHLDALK
Test: Inhibition of purified human erythrocyte adenylate kinase in a CPK-UV (Oliver-Rosalki) assay
Assay type: biochemical
Details: 37°C
Method: Table I illustrates the utilization of a high AMP/ ADP ratio in inhibiting purified human erythrocyte adenylate kinase. Residual AK activity is measured in reagent systems containing all necessary components of the Oliver-Rosalki CPK assay. The systems vary as a function of three components: AMP, ADP, and sodium fluoride. The data points cover a 1.43-5.72m Mole/liter ADP range and a 2.9-29.2m Mole/liter AMP range plus or minus 6m Mole/ liter NaF.
The reagents of Example 1 and 2 were utilized with the AMP and ADP concentration listed in the table, with or without 6 m mole/liter sodium fluoride.

## Nc1ncnc2c1ncn2[C@@H]1O[C@H](COP(=O)(O)O)[C@@H](O)[C@H]1O [AMP, adenosine monophosphate]
ADP 1.43 mM, AMP 2.9 mM, AMP/ADP 2.0, 6 m mole/liter NaF
  Measured Residual Adenylate Kinase (+NaF): 24 U/l
ADP 1.43 mM, AMP 2.9 mM, AMP/ADP 2.0, no NaF
  Measured Residual Adenylate Kinase (-NaF): 103 U/l
ADP 1.43 mM, AMP 5.8 mM, AMP/ADP 4.1, 6 m mole/liter NaF
  Measured Residual Adenylate Kinase (+NaF): 13 U/l
ADP 1.43 mM, AMP 5.8 mM, AMP/ADP 4.1, no NaF
  Measured Residual Adenylate Kinase (-NaF): 61 U/l
ADP 1.43 mM, AMP 7.3 mM, AMP/ADP 5.1, 6 m mole/liter NaF
  Measured Residual Adenylate Kinase (+NaF): 10 U/l
ADP 1.43 mM, AMP 7.3 mM, AMP/ADP 5.1, no NaF
  Measured Residual Adenylate Kinase (-NaF): 56 U/l
ADP 1.43 mM, AMP 10.2 mM, AMP/ADP 7.1, 6 m mole/liter NaF
  Measured Residual Adenylate Kinase (+NaF): 7.7 U/l
ADP 1.43 mM, AMP 10.2 mM, AMP/ADP 7.1, no NaF
  Measured Residual Adenylate Kinase (-NaF): 35 U/l
ADP 1.43 mM, AMP 14.6 mM, AMP/ADP 10.2, 6 m mole/liter NaF
  Measured Residual Adenylate Kinase (+NaF): 5.3 U/l
ADP 1.43 mM, AMP 14.6 mM, AMP/ADP 10.2, no NaF
  Measured Residual Adenylate Kinase (-NaF): 333 U/l
ADP 1.43 mM, AMP 21.9 mM, AMP/ADP 15.3, 6 m mole/liter NaF
  Measured Residual Adenylate Kinase (+NaF): 4.6 U/l
ADP 1.43 mM, AMP 21.9 mM, AMP/ADP 15.3, no NaF
  Measured Residual Adenylate Kinase (-NaF): 19 U/l
ADP 1.43 mM, AMP 29.2 mM, AMP/ADP 20.4, 6 m mole/liter NaF
  Measured Residual Adenylate Kinase (+NaF): 1.7 U/l
ADP 1.43 mM, AMP 29.2 mM, AMP/ADP 20.4, no NaF
  Measured Residual Adenylate Kinase (-NaF): 17 U/l
ADP 2.86 mM, AMP 2.9 mM, AMP/ADP 1.0, 6 m mole/liter NaF
  Measured Residual Adenylate Kinase (+NaF): 51 U/l
ADP 2.86 mM, AMP 2.9 mM, AMP/ADP 1.0, no NaF
  Measured Residual Adenylate Kinase (-NaF): 166 U/l
ADP 2.86 mM, AMP 5.8 mM, AMP/ADP 2.0, 6 m mole/liter NaF
  Measured Residual Adenylate Kinase (+NaF): 26 U/l
ADP 2.86 mM, AMP 5.8 mM, AMP/ADP 2.0, no NaF
  Measured Residual Adenylate Kinase (-NaF): 126 U/l
ADP 2.86 mM, AMP 7.3 mM, AMP/ADP 2.6, 6 m mole/liter NaF
  Measured Residual Adenylate Kinase (+NaF): 22 U/l
ADP 2.86 mM, AMP 7.3 mM, AMP/ADP 2.6, no NaF
  Measured Residual Adenylate Kinase (-NaF): 93 U/l
ADP 2.86 mM, AMP 10.2 mM, AMP/ADP 3.6, 6 m mole/liter NaF
  Measured Residual Adenylate Kinase (+NaF): 17 U/l
ADP 2.86 mM, AMP 10.2 mM, AMP/ADP 3.6, no NaF
  Measured Residual Adenylate Kinase (-NaF): 84 U/l
ADP 2.86 mM, AMP 14.6 mM, AMP/ADP 5.1, 6 m mole/liter NaF
  Measured Residual Adenylate Kinase (+NaF): 13 U/l
ADP 2.86 mM, AMP 14.6 mM, AMP/ADP 5.1, no NaF
  Measured Residual Adenylate Kinase (-NaF): 64 U/l
ADP 2.86 mM, AMP 21.9 mM, AMP/ADP 7.7, 6 m mole/liter NaF
  Measured Residual Adenylate Kinase (+NaF): 10 U/l
ADP 2.86 mM, AMP 21.9 mM, AMP/ADP 7.7, no NaF
  Measured Residual Adenylate Kinase (-NaF): 32 U/l
ADP 2.86 mM, AMP 29.2 mM, AMP/ADP 10.2, 6 m mole/liter NaF
  Measured Residual Adenylate Kinase (+NaF): 5.3 U/l
ADP 2.86 mM, AMP 29.2 mM, AMP/ADP 10.2, no NaF
  Measured Residual Adenylate Kinase (-NaF): 28 U/l
ADP 5.72 mM, AMP 2.9 mM, AMP/ADP 0.51, 6 m mole/liter NaF
  Measured Residual Adenylate Kinase (+NaF): 108 U/l
ADP 5.72 mM, AMP 2.9 mM, AMP/ADP 0.51, no NaF
  Measured Residual Adenylate Kinase (-NaF): 203 U/l
ADP 5.72 mM, AMP 5.8 mM, AMP/ADP 1.0, 6 m mole/liter NaF
  Measured Residual Adenylate Kinase (+NaF): 55 U/l
ADP 5.72 mM, AMP 5.8 mM, AMP/ADP 1.0, no NaF
  Measured Residual Adenylate Kinase (-NaF): 186 U/l
ADP 5.72 mM, AMP 7.3 mM, AMP/ADP 1.3, 6 m mole/liter NaF
  Measured Residual Adenylate Kinase (+NaF): 54 U/l
ADP 5.72 mM, AMP 7.3 mM, AMP/ADP 1.3, no NaF
  Measured Residual Adenylate Kinase (-NaF): 126 U/l
ADP 5.72 mM, AMP 10.2 mM, AMP/ADP 1.8, 6 m mole/liter NaF
  Measured Residual Adenylate Kinase (+NaF): 37 U/l
ADP 5.72 mM, AMP 10.2 mM, AMP/ADP 1.8, no NaF
  Measured Residual Adenylate Kinase (-NaF): 114 U/l
ADP 5.72 mM, AMP 14.6 mM, AMP/ADP 2.6, 6 m mole/liter NaF
  Measured Residual Adenylate Kinase (+NaF): 31 U/l
ADP 5.72 mM, AMP 14.6 mM, AMP/ADP 2.6, no NaF
  Measured Residual Adenylate Kinase (-NaF): 108 U/l
ADP 5.72 mM, AMP 21.9 mM, AMP/ADP 3.8, 6 m mole/liter NaF
  Measured Residual Adenylate Kinase (+NaF): 21 U/l
ADP 5.72 mM, AMP 21.9 mM, AMP/ADP 3.8, no NaF
  Measured Residual Adenylate Kinase (-NaF): 66 U/l
ADP 5.72 mM, AMP 29.2 mM, AMP/ADP 5.1, 6 m mole/liter NaF
  Measured Residual Adenylate Kinase (+NaF): 13 U/l
ADP 5.72 mM, AMP 29.2 mM, AMP/ADP 5.1, no NaF
  Measured Residual Adenylate Kinase (-NaF): 62 U/l

## sodium fluoride [NaF]
ADP 1.43 mM, AMP 0 mM, 6 m mole/liter NaF
  Measured Residual Adenylate Kinase (+NaF): 327 U/l
ADP 2.86 mM, AMP 0 mM, 6 m mole/liter NaF
  Measured Residual Adenylate Kinase (+NaF): 398 U/l
ADP 5.72 mM, AMP 0 mM, 6 m mole/liter NaF
  Measured Residual Adenylate Kinase (+NaF): 460 U/l
